Experimental data reported in publication PMC5218480 (PLoS ONE, 2017).

Tested on: MV-4-11 cells
Test: Gene expression microarray analysis (Affymetrix PrimeView) and GSEA
Type: cell-based, human
Set-up: RFU PODN (11730768_x_at) / Fold change /veh PODN (11730768_x_at) / RFU LINC00158 (11744669_a_at) / Fold change /veh LINC00158 (11744669_a_at) / RFU DUSP10 (11751237_a_at) / Fold change /veh DUSP10 (11751237_a_at) / RFU ID3 (11757404_x_at) / Fold change /veh ID3 (11757404_x_at) / RFU PLEKHG5 (11737974_s_at) / Fold change /veh PLEKHG5 (11737974_s_at) / RFU LRRC4B (11730491_at) / Fold change /veh LRRC4B (11730491_at) / RFU GIMAP4 (11747438_a_at) / Fold change /veh GIMAP4 (11747438_a_at) / RFU KRT8 (11758183_x_at) / Fold change /veh KRT8 (11758183_x_at) / RFU CNN1 (11734310_a_at) / Fold change /veh CNN1 (11734310_a_at) / RFU VPS37D (11726825_at) / Fold change /veh VPS37D (11726825_at) / RFU C10orf10 (11716522_x_at) / Fold change /veh C10orf10 (11716522_x_at) / RFU KIR2DL2 /// KIR2DL4 /// KIR2DL5A /// KIR2DL5B /// KIR2DS1 /// KIR2DS2 /// KIR2DS3 /// KIR2DS4 /// KIR3DL3 /// KIR3DL3 /// KIR3DS1 (11738374_at) / Fold change /veh KIR2DL2 /// KIR2DL4 /// KIR2DL5A /// KIR2DL5B /// KIR2DS1 /// KIR2DS2 /// KIR2DS3 /// KIR2DS4 /// KIR3DL3 /// KIR3DL3 /// KIR3DS1 (11738374_at) / RFU C1QL1 (11718748_at) / Fold change /veh C1QL1 (11718748_at) / RFU TMPRSS4 (11747572_a_at) / Fold change /veh TMPRSS4 (11747572_a_at) / RFU HAMP (11756126_x_at) / Fold change /veh HAMP (11756126_x_at) / RFU RNFT2 (11725882_a_at) / Fold change /veh RNFT2 (11725882_a_at) / RFU NR4A2 (11747474_a_at) / Fold change /veh NR4A2 (11747474_a_at) / RFU ABCC12 (11746883_a_at) / Fold change /veh ABCC12 (11746883_a_at) / RFU TMEM136 (11760407_x_at) / Fold change /veh TMEM136 (11760407_x_at) / RFU CLDN22 /// WWC2 (11732394_at) / Fold change /veh CLDN22 /// WWC2 (11732394_at) / RFU HLA-DPB1 (11760878_x_at) / Fold change /veh HLA-DPB1 (11760878_x_at) / RFU SPINT1 (11716480_a_at) / Fold change /veh SPINT1 (11716480_a_at) / RFU GAP43 (11754022_s_at) / Fold change /veh GAP43 (11754022_s_at) / RFU A4GNT (11735810_at) / Fold change /veh A4GNT (11735810_at) / RFU PRB3 (11715151_x_at) / Fold change /veh PRB3 (11715151_x_at) / RFU TUBB4B (11761932_at) / Fold change /veh TUBB4B (11761932_at) / RFU CAPN14 (11732068_a_at) / Fold change /veh CAPN14 (11732068_a_at) / RFU TMCC2 (11721928_a_at) / Fold change /veh TMCC2 (11721928_a_at) / RFU IRGQ (11745062_a_at) / Fold change /veh IRGQ (11745062_a_at) / RFU FAM174B (11720279_a_at) / Fold change /veh FAM174B (11720279_a_at) / RFU TMPRSS4 (11748680_a_at) / Fold change /veh TMPRSS4 (11748680_a_at) / RFU FAM212B (11763350_a_at) / Fold change /veh FAM212B (11763350_a_at) / RFU PLEKHG5 (11743358_a_at) / Fold change /veh PLEKHG5 (11743358_a_at) / RFU ZSCAN30 (11745921_a_at) / Fold change /veh ZSCAN30 (11745921_a_at) / RFU CMKLR1 (11741424_a_at) / Fold change /veh CMKLR1 (11741424_a_at) / RFU LOC101060620 /// MAPK8IP1 (11723275_at) / Fold change /veh LOC101060620 /// MAPK8IP1 (11723275_at) / RFU SPTSSB (11747773_x_at) / Fold change /veh SPTSSB (11747773_x_at) / RFU PRSS12 (11739890_at) / Fold change /veh PRSS12 (11739890_at) / RFU BIN1 (11741810_x_at) / Fold change /veh BIN1 (11741810_x_at) / RFU WNT11 (11732464_a_at) / Fold change /veh WNT11 (11732464_a_at) / RFU C10orf10 (11716521_a_at) / Fold change /veh C10orf10 (11716521_a_at) / RFU C5orf56 (11738089_at) / Fold change /veh C5orf56 (11738089_at) / RFU CYB561 (11721691_x_at) / Fold change /veh CYB561 (11721691_x_at) / RFU ANKRD19P (11752326_a_at) / Fold change /veh ANKRD19P (11752326_a_at) / RFU OR2T12 /// OR2T33 /// OR2T8 (11738714_s_at) / Fold change /veh OR2T12 /// OR2T33 /// OR2T8 (11738714_s_at) / RFU VCAN (11748164_a_at) / Fold change /veh VCAN (11748164_a_at) / RFU JSRP1 (11732532_at) / Fold change /veh JSRP1 (11732532_at) / RFU KRTAP10-11 (11738290_x_at) / Fold change /veh KRTAP10-11 (11738290_x_at) / RFU MYO3A (11730013_a_at) / Fold change /veh MYO3A (11730013_a_at) / RFU EBF3 (11725865_a_at) / Fold change /veh EBF3 (11725865_a_at) / RFU CAMK2N1 (11719241_x_at) / Fold change /veh CAMK2N1 (11719241_x_at) / RFU C5orf56 (11738088_a_at) / Fold change /veh C5orf56 (11738088_a_at) / RFU OLFML3 (11715873_a_at) / Fold change /veh OLFML3 (11715873_a_at) / RFU LOC100653217 /// NTM (11731650_a_at) / Fold change /veh LOC100653217 /// NTM (11731650_a_at) / RFU MAPK11 (11762145_a_at) / Fold change /veh MAPK11 (11762145_a_at) / RFU FIZ1 (11724087_x_at) / Fold change /veh FIZ1 (11724087_x_at) / RFU OASL (11726364_x_at) / Fold change /veh OASL (11726364_x_at) / RFU SOX15 (11748057_x_at) / Fold change /veh SOX15 (11748057_x_at) / RFU CD79A (11719716_a_at) / Fold change /veh CD79A (11719716_a_at) / RFU HIST1H1D (11736915_at) / Fold change /veh HIST1H1D (11736915_at) / RFU CASKIN2 (11723855_a_at) / Fold change /veh CASKIN2 (11723855_a_at) / RFU LOC730098 (11760151_x_at) / Fold change /veh LOC730098 (11760151_x_at) / RFU OR4N2 (11742367_at) / Fold change /veh OR4N2 (11742367_at) / RFU PRRT2 (11749266_a_at) / Fold change /veh PRRT2 (11749266_a_at) / RFU SNX32 (11753110_a_at) / Fold change /veh SNX32 (11753110_a_at) / RFU CDHR5 (11726645_a_at) / Fold change /veh CDHR5 (11726645_a_at) / RFU RCAN1 (11760418_a_at) / Fold change /veh RCAN1 (11760418_a_at) / RFU FAM167A (11723789_a_at) / Fold change /veh FAM167A (11723789_a_at) / RFU FAM26E (11764081_at) / Fold change /veh FAM26E (11764081_at) / RFU ISYNA1 (11749810_s_at) / Fold change /veh ISYNA1 (11749810_s_at) / RFU ACY1 (11761880_at) / Fold change /veh ACY1 (11761880_at) / RFU 11764098_at / Fold change /veh 11764098_at / RFU SAMD14 (11745864_x_at) / Fold change /veh SAMD14 (11745864_x_at) / RFU NPB (11741838_a_at) / Fold change /veh NPB (11741838_a_at) / RFU TMPRSS6 (11731388_a_at) / Fold change /veh TMPRSS6 (11731388_a_at) / RFU KRTAP10-2 (11738614_at) / Fold change /veh KRTAP10-2 (11738614_at) / RFU ARHGAP8 /// PRR5-ARHGAP8 (11727945_x_at) / Fold change /veh ARHGAP8 /// PRR5-ARHGAP8 (11727945_x_at) / RFU KRTAP5-7 /// NADSYN1 (11734609_at) / Fold change /veh KRTAP5-7 /// NADSYN1 (11734609_at) / RFU RASL12 (11751679_a_at) / Fold change /veh RASL12 (11751679_a_at) / RFU CDKN2B (11736163_a_at) / Fold change /veh CDKN2B (11736163_a_at) / RFU PRF1 (11729649_at) / Fold change /veh PRF1 (11729649_at) / RFU, ZNF638 /// ZNF638-IT1 / Fold change vs veh, ZNF638 /// ZNF638-IT1 / RFU, PANK3 / Fold change vs veh, PANK3 / RFU, SH3YL1 / Fold change vs veh, SH3YL1 / RFU, ZEB2 / Fold change vs veh, ZEB2 / RFU, NRIP1 / Fold change vs veh, NRIP1 / RFU, PTTG1IP / Fold change vs veh, PTTG1IP / RFU, CAPN2 / Fold change vs veh, CAPN2 / RFU, MED14 / Fold change vs veh, MED14 / RFU, SNORA58 / Fold change vs veh, SNORA58 / RFU, C1orf63 / Fold change vs veh, C1orf63 / RFU, LRRFIP1 / Fold change vs veh, LRRFIP1 / RFU, NDUFAF7 / Fold change vs veh, NDUFAF7 / RFU, SLC12A2 / Fold change vs veh, SLC12A2 / RFU, IBTK / Fold change vs veh, IBTK / RFU, ESF1 / Fold change vs veh, ESF1 / Fold change vs veh, TMEM50B / RFU, TAOK1 / Fold change vs veh, TAOK1 / RFU, ACBD3 / Fold change vs veh, ACBD3 / RFU, TMA16 / Fold change vs veh, TMA16 / RFU, RWDD3 / Fold change vs veh, RWDD3 / RFU, BCAT1 / Fold change vs veh, BCAT1 / RFU, EDEM3 / Fold change vs veh, EDEM3 / RFU, TMEM33 / Fold change vs veh, TMEM33 / RFU, WDR75 / Fold change vs veh, WDR75 / RFU, AHCTF1 / Fold change vs veh, AHCTF1 / RFU, TFRC / Fold change vs veh, TFRC / RFU, ZDHHC17 / Fold change vs veh, ZDHHC17 / RFU, NOM1 / Fold change vs veh, NOM1 / RFU, ARL8B / Fold change vs veh, ARL8B / RFU, ZBTB11 / Fold change vs veh, ZBTB11 / RFU, TAMM41 / Fold change vs veh, TAMM41 / RFU, KIAA1704 /// LOC100996395 / Fold change vs veh, KIAA1704 /// LOC100996395 / RFU, ING1 / Fold change vs veh, ING1 / RFU, TRMT61B / Fold change vs veh, TRMT61B / RFU, FUBP3 / Fold change vs veh, FUBP3 / RFU, TP53 / Fold change vs veh, TP53 / RFU, TNKS2 / Fold change vs veh, TNKS2 / RFU, ZFP14 / Fold change vs veh, ZFP14 / RFU, ACTR2 / Fold change vs veh, ACTR2 / RFU, PPP3R1 / Fold change vs veh, PPP3R1 / RFU, PIK3R1 / Fold change vs veh, PIK3R1 / RFU, HNRNPA1 / Fold change vs veh, HNRNPA1 / RFU, RNF170 / Fold change vs veh, RNF170 / RFU, ZNF28 / Fold change vs veh, ZNF28 / RFU, RNGTT / Fold change vs veh, RNGTT / RFU, OGT / Fold change vs veh, OGT / RFU, BRD1 / Fold change vs veh, BRD1 / RFU, MARS / Fold change vs veh, MARS / RFU, ZNF655 / Fold change vs veh, ZNF655 / RFU, FAHD1 / Fold change vs veh, FAHD1 / RFU, BDP1 / Fold change vs veh, BDP1 / RFU, LRRCC1 / Fold change vs veh, LRRCC1 / RFU, ARID1A / Fold change vs veh, ARID1A / RFU, ZNF146 / Fold change vs veh, ZNF146 / RFU, ZNF330 / Fold change vs veh, ZNF330 / RFU, GPN3 / Fold change vs veh, GPN3 / RFU, C9orf123 / Fold change vs veh, C9orf123 / RFU, N4BP2L2 / Fold change vs veh, N4BP2L2 / RFU, ARFIP1 / Fold change vs veh, ARFIP1 / RFU, FAM179B / Fold change vs veh, FAM179B / RFU, BCL10 / Fold change vs veh, BCL10 / RFU, UHRF1BP1L / Fold change vs veh, UHRF1BP1L / RFU, BET1 / Fold change vs veh, BET1 / RFU, CNOT2 / Fold change vs veh, CNOT2 / RFU, ZNF268 / Fold change vs veh, ZNF268 / Fold change vs veh, ZNF507 / RFU, DGCR2 / Fold change vs veh, DGCR2 / RFU, WDSUB1 / Fold change vs veh, WDSUB1 / Fold change vs veh, HSP90B1 /// MIR3652 / RFU, ADSS / Fold change vs veh, ADSS / RFU, GK / Fold change vs veh, GK / RFU, ZNF148 / Fold change vs veh, ZNF148 / RFU, TAF9 / Fold change vs veh, TAF9 / RFU, SLC1A5 / Fold change vs veh, SLC1A5 / RFU, SLMO2 / Fold change vs veh, SLMO2 / RFU, ABCC4 / Fold change vs veh, ABCC4 / RFU, LOC101060439 /// RAP1B / Fold change vs veh, LOC101060439 /// RAP1B / RFU, RFX7 / Fold change vs veh, RFX7 / RFU, GTPBP10 / Fold change vs veh, GTPBP10 / RFU, CNEP1R1 / Fold change vs veh, CNEP1R1 / RFU, BIVM-ERCC5 /// ERCC5 / Fold change vs veh, BIVM-ERCC5 /// ERCC5 / RFU, ILF3 / Fold change vs veh, ILF3 / RFU 11762660_at / Fold change /veh 11762660_at / RFU VCAN (11757783_s_at) / Fold change /veh VCAN (11757783_s_at) / RFU DDX43 (11728927_at) / Fold change /veh DDX43 (11728927_at) / RFU KRT8 (11758188_x_at) / Fold change /veh KRT8 (11758188_x_at) / RFU NKD1 (11759106_at) / Fold change /veh NKD1 (11759106_at) / RFU SRD5A1 (11742802_a_at) / Fold change /veh SRD5A1 (11742802_a_at) / RFU TPSAB1 /// TPSB2 (11721975_s_at) / Fold change /veh TPSAB1 /// TPSB2 (11721975_s_at) / RFU GSTM3 (11746129_a_at) / Fold change /veh GSTM3 (11746129_a_at) / RFU IL23R (11737362_x_at) / Fold change /veh IL23R (11737362_x_at) / RFU TMEM51 (11727254_a_at) / Fold change /veh TMEM51 (11727254_a_at) / RFU PIWIL2 (11732686_x_at) / Fold change /veh PIWIL2 (11732686_x_at) / RFU ORM1 (11744905_x_at) / Fold change /veh ORM1 (11744905_x_at) / RFU CCDC152 (11743942_at) / Fold change /veh CCDC152 (11743942_at) / RFU ECM1 (11717891_a_at) / Fold change /veh ECM1 (11717891_a_at) / RFU IL23R (11748794_a_at) / Fold change /veh IL23R (11748794_a_at) / RFU TNFAIP8L3 (11732012_x_at) / Fold change /veh TNFAIP8L3 (11732012_x_at) / RFU MBOAT4 (11741988_at) / Fold change /veh MBOAT4 (11741988_at) / RFU 11764193_at / Fold change /veh 11764193_at / RFU TMEM53 (11763286_at) / Fold change /veh TMEM53 (11763286_at) / RFU MAGEB2 (11727129_at) / Fold change /veh MAGEB2 (11727129_at) / RFU TMEM200A (11744735_a_at) / Fold change /veh TMEM200A (11744735_a_at) / RFU CCDC152 (11751479_a_at) / Fold change /veh CCDC152 (11751479_a_at) / RFU FAM211A (11726209_a_at) / Fold change /veh FAM211A (11726209_a_at) / RFU RGS16 (11746705_a_at) / Fold change /veh RGS16 (11746705_a_at) / RFU VCAN (11755009_s_at) / Fold change /veh VCAN (11755009_s_at) / RFU RHOB (11743442_s_at) / Fold change /veh RHOB (11743442_s_at) / RFU RGS16 (11720943_a_at) / Fold change /veh RGS16 (11720943_a_at) / RFU RGS16 (11720944_at) / Fold change /veh RGS16 (11720944_at) / RFU, VPS4B / Fold change vs veh, VPS4B / RFU, CREB1 / Fold change vs veh, CREB1 / RFU, DNAJC13 / Fold change vs veh, DNAJC13 / RFU, GNAQ / Fold change vs veh, GNAQ / RFU, CDK5R1 / Fold change vs veh, CDK5R1 / RFU, ZRANB3 / Fold change vs veh, ZRANB3 / RFU, CUL4A / Fold change vs veh, CUL4A / RFU, CCNY / Fold change vs veh, CCNY / RFU, UFL1 / Fold change vs veh, UFL1 / RFU, COG3 / Fold change vs veh, COG3 / RFU, DIAPH2 / Fold change vs veh, DIAPH2 / RFU, SKA2 / Fold change vs veh, SKA2 / RFU, AFF3 / Fold change vs veh, AFF3 / RFU, LMF1 / Fold change vs veh, LMF1 / RFU, IPO11 / Fold change vs veh, IPO11 / RFU, DFFB / Fold change vs veh, DFFB / RFU, FOXP1 / Fold change vs veh, FOXP1 / RFU, CARD8 / Fold change vs veh, CARD8 / RFU, STRN3 / Fold change vs veh, STRN3 / RFU, ADK / Fold change vs veh, ADK / RFU, RASSF2 / Fold change vs veh, RASSF2 / RFU, WIPF1 / Fold change vs veh, WIPF1 / RFU, LARP1B / Fold change vs veh, LARP1B / RFU, RASA1 / Fold change vs veh, RASA1 / RFU, RB1 / Fold change vs veh, RB1 / RFU, PPFIA1 / Fold change vs veh, PPFIA1 / RFU, MAT2A / Fold change vs veh, MAT2A / RFU, CCT5 / Fold change vs veh, CCT5 / RFU, WDR92 / Fold change vs veh, WDR92 / RFU, CUX1 / Fold change vs veh, CUX1 / RFU, TTC7A / Fold change vs veh, TTC7A / RFU, TMEM135 / Fold change vs veh, TMEM135 / RFU, DEPTOR / Fold change vs veh, DEPTOR / RFU, CPM / Fold change vs veh, CPM / RFU, DNAJB6 / Fold change vs veh, DNAJB6 / RFU, CACNA2D3 / Fold change vs veh, CACNA2D3 / RFU, DTX4 / Fold change vs veh, DTX4 / RFU, TFCP2 / Fold change vs veh, TFCP2 / RFU, GMCL1 /// GMCL1P1 / Fold change vs veh, GMCL1 /// GMCL1P1 / RFU, AEBP2 / Fold change vs veh, AEBP2 / RFU, SNHG1 /// SNORD22 /// SNORD25 /// SNORD26 /// SNORD27 /// SNORD28 /// SNORD29 /// SNORD31 / Fold change vs veh, SNHG1 /// SNORD22 /// SNORD25 /// SNORD26 /// SNORD27 /// SNORD28 /// SNORD29 /// SNORD31 / Fold change (Aza/veh), C12orf56 (ProbeSet 11735607_a_at) / Fold change (ACY-1035/veh), C12orf56 (ProbeSet 11735607_a_at) / Fold change (Aza/veh), FGFR1OP (ProbeSet 11751329_s_at) / Fold change (ACY-1035/veh), FGFR1OP (ProbeSet 11751329_s_at) / Fold change (Aza/veh), VPS36 (ProbeSet 11739960_a_at) / Fold change (ACY-1035/veh), VPS36 (ProbeSet 11739960_a_at) / RFU SYPL1 (11715823_x_at) / Fold change /veh SYPL1 (11715823_x_at) / RFU IGFBP7 (11715501_s_at) / Fold change /veh IGFBP7 (11715501_s_at) / RFU REEP3 (11722064_at) / Fold change /veh REEP3 (11722064_at) / RFU IGLL1 (11728026_x_at) / Fold change /veh IGLL1 (11728026_x_at): dose or concentration left out as unconfirmed
Details: MV-4-11 cells, 48 hours

Question: `Nc1ccc(-c2cccs2)cc1NC(=O)c1ccc2c(c1)cc(C1CC1)n2CCN1CCOCC1` [ACY-1035] was tested. Which “RFU C1QL1 (11718748_at)” value did it give?
Answer: Its value is 611.11 RFU.
